In patent publication US20190382454A1, “A MODIFIED PEPTIDE AS AN ANTICANCER AGENT” (Amrita Therapeutics Limited, priority 2015, published 2019):
“Also recorded” adds a separate entry of the source. Ends that are not written are not given here.

Key:
[1] = system: HT29 cells (adenocarcinoma); test: HT29 xenograft in SCID mice; type: in vivo; details: 50 mg/kg daily, 21 days of treatment
Method: (§1) SCID mice were injected subcutaneously with either 1 million HCT116 cells (carcinoma) or HT29 cells (adenocarcinoma) both of which are colon cancer cells. After 2 weeks tumors developed could be seen and the process of injecting AT-01C peptide was initiated. For HCT116 xenograft mice model AT-01C peptide of 25 mg/kg body weight of mice was injected intra-peritoneally. In case of HT29 xenograft mice model AT-01C peptide of 50 mg/kg body weight of mice was injected intra-peritoneally. Stock concentration of the AT-01C was 10 mg/ml. Both the mice group were injected with AT-01C peptide for 21 days daily just 5 mm away from the tumors. The daily injection was performed by injecting AT-01C surrounding the tumors being developed. After 21 days of injection tumors excised and their weight and volume was measured.
(§2) Tumors raised in SCID mice by subcutaneously injecting either 1 million HCT116 cells or HT29 cells (Xenograft model). After tumors developed and were visible to eyes AT-01C peptide treatment was started. For tumors raised using HCT116 colon cancer cells AT-01C of 25 mg/kg body weight of mice was injected intra-peritoneally. AT-01C peptide of 50 mg/kg body weight was injected intra-peritoneally as treatment for tumors raised with HT29 cells. AT-01C was injected daily surrounding the tumor 5 mm away from it. After 21 days of peptide injection, mice were sacrificed and tumors excised. […]

HCT116 cells (carcinoma) = test: HCT116 xenograft in SCID mice; type: in vivo; details: 25 mg/kg daily, 21 days of treatment
Method: as §1, §2

SMAR1 [2] = target: T1, SMAR1 (Homo sapiens, UniProt Q8N9N5); test: SMAR1 stabilization/induction in HCT116 cells (western blot); type: cell-based; details: peptide treatment 48 hours
T1 construct: HCT116 cells treated with different available peptides for 48 hours stabilized SMAR1 expression; endogenous in cells; host or cells: HCT116 p53+/+, HCT116 p53-/-, MCF7, SW620, NCI-H522, MDA-MB231
T1 sequence (Q8N9N5 1-519): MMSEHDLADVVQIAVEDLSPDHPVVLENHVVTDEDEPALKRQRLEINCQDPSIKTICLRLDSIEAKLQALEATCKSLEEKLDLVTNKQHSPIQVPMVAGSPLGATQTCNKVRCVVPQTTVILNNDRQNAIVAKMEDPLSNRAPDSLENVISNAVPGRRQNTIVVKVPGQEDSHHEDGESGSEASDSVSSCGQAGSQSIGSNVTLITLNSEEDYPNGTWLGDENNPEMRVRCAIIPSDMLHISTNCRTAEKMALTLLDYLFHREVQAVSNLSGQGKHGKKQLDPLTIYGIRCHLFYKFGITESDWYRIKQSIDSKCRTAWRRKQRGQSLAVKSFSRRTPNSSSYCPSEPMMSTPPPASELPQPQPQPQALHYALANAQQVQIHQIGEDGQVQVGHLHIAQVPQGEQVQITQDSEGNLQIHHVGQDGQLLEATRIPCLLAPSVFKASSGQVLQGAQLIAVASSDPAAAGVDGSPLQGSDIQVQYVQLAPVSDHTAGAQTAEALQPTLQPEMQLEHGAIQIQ

SMAR1 [3] = test: Peptide interaction assay by ITC, SMAR1; type: binding; details: 25° C.
SMAR1 [4] = target: T1, SMAR1; test: SMAR1 stabilization across a variety of cancer cell lines (MCF7, SW620, NCI-H522, HCT116p53-/-, MDA-MB231); type: cell-based; details: different concentrations
MDA-MB231 cells = test: Annexin V staining by flow cytometry (FACS); type: cell-based, Human; details: after peptide treatment
SMAR1 [5] = target: T1, SMAR1; test: SMAR1 induction in HCT116p53-/- cells; type: cell-based
SMAR1 [6] = test: PCR of SMAR1 mRNA in HCT116p53+/+ cells; details: 48 hours
HCT116 cells = test: Colony formation assay; type: cell-based
Method: 200 HCT116 cells seeded in 35 mm petri dishes and cultured for 24 hours. 10 μg of AT-01D added fresh every two days up to day 12th. Cell were washed with 1× Phosphate Buffer Saline and then fixed using 3% Para-formaldehyde for 10 minutes. Cells were washed and stained with Crystal violet for 30 minutes. After washing with PBS plates were kept inverted and air dried. Colonies were counted using inverted bright field microscope (Nikon). A group of cells were identified to be a colony that consists of more than 50 cells.

[7] = system: MDA-MB231 breast cancer cells; test: Wound healing / cell migration assay; type: cell-based, Human; details: MDA-MB231, 10 μg peptide, recorded up to 16 hours, vs DMSO control
Method: MDA-MB231 breast cancer cells (1×10^^6) were seeded in a 6 well plate and maintained in L15 DMEM medium supplemented with 10% FBS and 100 Units of Penicillin Streptomycin antibiotics for 24 hours. Cells were treated for 24 hours with AT-01C and AT-01D peptides of 10 μg each. Post 24 hours wound was created and washed with medium to remove the cells detached during wound creation. Fresh peptides were added plate was mounted at the microscope chamber maintaining the temperature of 37° C. Images were acquired in NIKON Confocal Microscope for 5 minutes interval. Time lapse was set for 16 hours and images were compiled to make the video movie of the cell migration.

[8] = target: T2, Scaffold Matrix Attachment Region Binding Protein 1 (SMAR1), full length (UniProt Q8N9N5 1-519); test: ITC, 25 C
T2 construct: This molecule also stands for endogenous SMAR1 of HCT116 cells in the functional rows
T2 sequence: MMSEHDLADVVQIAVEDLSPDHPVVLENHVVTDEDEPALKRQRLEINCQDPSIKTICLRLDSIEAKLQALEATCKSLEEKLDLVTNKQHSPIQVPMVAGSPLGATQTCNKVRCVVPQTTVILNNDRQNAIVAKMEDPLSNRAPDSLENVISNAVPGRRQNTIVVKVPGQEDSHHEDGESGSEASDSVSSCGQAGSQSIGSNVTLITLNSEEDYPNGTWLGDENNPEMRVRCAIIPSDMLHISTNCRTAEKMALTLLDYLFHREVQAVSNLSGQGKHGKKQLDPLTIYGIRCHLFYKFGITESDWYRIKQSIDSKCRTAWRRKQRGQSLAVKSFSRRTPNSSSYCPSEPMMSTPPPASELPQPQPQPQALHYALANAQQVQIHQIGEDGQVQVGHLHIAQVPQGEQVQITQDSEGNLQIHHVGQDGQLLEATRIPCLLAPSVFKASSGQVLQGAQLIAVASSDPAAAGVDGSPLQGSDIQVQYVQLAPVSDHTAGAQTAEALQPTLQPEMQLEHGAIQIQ

ATATVNAIRGSVTPAVSQFN [AT-01C] was tested, and the survival of mice [1] was “All the mice survived” and the survival of mice (HCT116 cells (carcinoma)) was “All the mice survived”.

In the case of “GQVWEATATVNAIRGSVTPAVSQFNARTAD (The sequence is developed from MPT63 of M. tuberculosis) [AT-01, 30 amino acid peptide synthesized from MPT-63 of M. tuberculosis]”, the “SMAR1 stabilization / induction” value (SMAR1 [2]) is reported as “very less or no induction of SMAR1” and the “interaction with SMAR1 (ITC)” value (SMAR1 [3]) is reported as “failed to interact with SMAR1”.

With “NAIRGSVTPAVSQFN (The sequence is developed from MPT63 of M. tuberculosis) [AT-01D, 15 amino acid peptide derived from AT01]” the SMAR1 stabilization (SMAR1 [4]) was “heightened effectiveness”, the “cell death (Annexin V)” value (MDA-MB231 cells) was “no signs of cell death” and the “SMAR1 stabilization / induction” value (SMAR1 [2]) was “heightened effectiveness; also recorded: superior induction of SMAR1; also recorded: stabilized SMAR1 the most; also recorded: significantly induce expression of SMAR1”. The “interaction with SMAR1 (ITC)” value (SMAR1 [3]) was “positive results”, the “induction of SMAR1” value (SMAR1 [5]) was “induction of SMAR1 was observed” and the “transcriptional regulation of SMAR1 (PCR)” value (SMAR1 [6]) was “failed to control the transcriptional regulation of SMAR1”. The “colony formation / rate of cell proliferation” value (HCT116 cells; HCT116, 10 μg, 12 days, vs DMSO control) was “delayed or decreased”, the “apoptotic cells in colony formation culture” value (HCT116 cells; HCT116, till the 12th day) was “No apoptotic cells or group of cells observed” and the cell migration [7] was “mitigation of anticipated cell migration; also recorded: attenuate migration”.

B1: AT-01 (peptide)
peptide: GQVWEATATVNAIRGSVTPAVSQFNARTAD
notes: also called parent 30 amino acid peptide
B1: no binding [8].
